Experimental findings from patent US8940913B2, “Herbicides” (Syngenta Crop Protection, LLC, priority 2007, dated 2015) are described below.

Holding throughout (type): in vivo
For test [1], the system named is Alopecurus myosuroides (ALOMY). Description: Pre-emergence herbicidal activity, glasshouse pot test. Particulars: 480 h, rate 250 g/ha, evaluated 20 days later, 100=total damage to plant, 0=no damage to plant. The method, then:
(§1) Monocotyledonous and dicotyledonous test plants were sown in standard soil in pots. After cultivation for one day (pre-emergence) or after 10 days cultivation (post-emergence) under controlled conditions in a glasshouse, the plants were sprayed with an aqueous spray solution derived from the formulation of the technical active ingredient in 0.6 ml acetone and 45 ml formulation solution containing 10.6% Emulsogen EL (Registry number 61791-12-6), 42.2% N-methylpyrrolidone, 42.2% dipropylene glycol monomethyl ether (Registry number 34590-94-8) and 0.2% X-77 (Registry number 11097-66-8). The test plants were then grown in a greenhouse under optimum conditions until, 15 days later for post-emergence and 20 days for pre-emergence, the test was evaluated (100=total damage to plant; 0=no damage to plant). Test Plants: Alopecurus myosuroides (ALOMY), Avena fatua (AVEFA), Lolium perenne (LOLPE), Setaria faberi (SETFA), Digitaria sanguinalis (DIGSA), Echinochloa crus-galli (ECHCG)

Test [2] concerns Avena fatua (AVEFA). Described as above. Particulars: 480 h, rate 250 g/ha, evaluated 20 days later, 100=total damage to plant, 0=no damage to plant. The method, then:
as §1

In test [3] the test system is Digitaria sanguinalis (DIGSA). Described as above. Particulars: 480 h, rate 250 g/ha, evaluated 20 days later, 100=total damage to plant, 0=no damage to plant. How it is done: as §1
Test [4] relates to Echinochloa crus-galli (ECHCG). The test is described as above. To be noted: 480 h, rate 250 g/ha, evaluated 20 days later, 100=total damage to plant, 0=no damage to plant. The method, then:
as §1

The subject of test [5] is Lolium perenne (LOLPE). The description is as above. Particulars: 480 h, rate 250 g/ha, evaluated 20 days later, 100=total damage to plant, 0=no damage to plant. How it is done:
as §1

In test [6] the test system is Setaria faberi (SETFA). The test is described as above. Particulars: 480 h, rate 250 g/ha, evaluated 20 days later, 100=total damage to plant, 0=no damage to plant. The method, then: as §1
Test [7] has as its system Alopecurus myosuroides (ALOMY). Description: Post-emergence herbicidal activity, glasshouse pot test. Particulars: 360 h, rate 125 g/ha, evaluated 15 days later, 100=total damage to plant, 0=no damage to plant. How it is done: as §1
In test [8] the test system is Avena fatua (AVEFA). The test is described as above. Particulars: 360 h, rate 125 g/ha, evaluated 15 days later, 100=total damage to plant, 0=no damage to plant. How it is done: as §1
In test [9] the test system is Digitaria sanguinalis (DIGSA). The description is as above. To be noted: 360 h, rate 125 g/ha, evaluated 15 days later, 100=total damage to plant, 0=no damage to plant. The method, then: as §1
The subject of test [10] is Echinochloa crus-galli (ECHCG). Described as above. To be noted: 360 h, rate 125 g/ha, evaluated 15 days later, 100=total damage to plant, 0=no damage to plant. The method, then:
as §1

Test [11] relates to Lolium perenne (LOLPE). The test is described as above. Particulars: 360 h, rate 125 g/ha, evaluated 15 days later, 100=total damage to plant, 0=no damage to plant. The method, then: as §1
Test [12] relates to Setaria faberi (SETFA). The test is described as above. Particulars: 360 h, rate 125 g/ha, evaluated 15 days later, 100=total damage to plant, 0=no damage to plant. How it is done: as §1

Usually pest or weed control stands for how far the test organism was held down. Read a low pest or weed control as a weak effect.

In the case of `Cc1cc(-c2ccccc2)cc(C)c1C1C(=O)[C@H]2[C@@H]3CC[C@@](C)(O3)[C@H]2C1=O` (stereo partly drawn) [Compound T8], the pest or weed control at 250 g/ha is 90% in [1]; 50% in the test on Avena fatua (AVEFA) [2]; 100% in [3]; 100% in [4]; 80% in the test on Lolium perenne (LOLPE) [5]; 100% with Setaria faberi (SETFA) [6]. Also, the pest or weed control at 125 g/ha in test [7] came to 100%; in the test with Avena fatua (AVEFA) [8], 90%; in test [9], 100%; in test [10], 100%; in the test on Lolium perenne (LOLPE) [11], 70%; in the test with Setaria faberi (SETFA) [12] it was 100%.

Take `CCc1ccc(-c2ccc(Cl)c(F)c2F)cc1C1=C(O)[C@H]2[C@@H](C1=O)[C@]1(C)CC[C@@]2(C)O1` [Compound T38]: the pest or weed control at 250 g/ha is 0% in [1]; 30% with Avena fatua (AVEFA) [2]; 30% in test [3]; 100% in test [4]; 50% in the test on Lolium perenne (LOLPE) [5]; 90% with Setaria faberi (SETFA) [6]. Further, the pest or weed control at 125 g/ha was 100% in test [7]; 90% in the test with Avena fatua (AVEFA) [8]; 100% in test [9]; 100% in test [10]; 50% in the test on Lolium perenne (LOLPE) [11]; 80% in the test with Setaria faberi (SETFA) [12].

As for `CCc1ccc(-c2ccc(Cl)cc2F)cc1C1=C(O)[C@H]2[C@@H](C1=O)[C@@H]1CC[C@H]2O1` [Compound T10], the pest or weed control at 250 g/ha in [1] was found to be 70%; in the test with Avena fatua (AVEFA) [2] it was 70%; in [3], 100%; in [4], 100%; in the test on Lolium perenne (LOLPE) [5], 80%; in the test on Setaria faberi (SETFA) [6], 100%. Also, the pest or weed control at 125 g/ha came out at 90% in test [7]; 90% with Avena fatua (AVEFA) [8]; 100% in [9]; 100% in test [10]; 90% with Lolium perenne (LOLPE) [11]; 100% with Setaria faberi (SETFA) [12].

For the compound `Cc1cc(-c2ccccc2)cc(C)c1C1C(=O)[C@@H]2[C@H](C1=O)[C@H]1CC[C@@H]2O1` (mixture of isomers) [Compound T6, (1RS,2SR,6RS,7SR)-4-(3,5-dimethylbiphen-4-yl)-10-oxa-tricyclo[5.2.1.0^2,6]decane-3,5-dione], the pest or weed control at 250 g/ha was found to be 50% in test [1]; 0% with Avena fatua (AVEFA) [2]; 80% in [3]; 100% in test [4]; 70% in the test with Lolium perenne (LOLPE) [5]; 100% with Setaria faberi (SETFA) [6]. The pest or weed control at 125 g/ha came out at 80% in [7]; 30% in the test on Avena fatua (AVEFA) [8]; 30% in test [9]; 70% in test [10]; 50% in the test on Lolium perenne (LOLPE) [11]; 60% in the test on Setaria faberi (SETFA) [12].

For `Cc1cc(-c2ccc(C(F)(F)F)cc2)cc(C)c1C1C(=O)[C@@H]2[C@H](C1=O)[C@H]1CC[C@@H]2O1` (stereo partly drawn) [Compound T26], the pest or weed control at 250 g/ha in test [1] came out at 0%; in the test with Avena fatua (AVEFA) [2], 0%; in test [3], 70%; in test [4], 70%; in the test with Lolium perenne (LOLPE) [5], 0%; with Setaria faberi (SETFA) [6] it was 70%. In addition, the pest or weed control at 125 g/ha was 30% in test [7]; 20% in the test with Avena fatua (AVEFA) [8]; 90% in [9]; 90% in [10]; 30% in the test with Lolium perenne (LOLPE) [11]; 100% in the test with Setaria faberi (SETFA) [12].

As to `CCc1ccc(-c2ccc(Cl)c(C(F)(F)F)c2)cc1C1=C(O)[C@H]2[C@@H](C1=O)[C@@H]1CC[C@H]2O1` [Compound T17], the pest or weed control at 250 g/ha in [1] stood at 0%; in the test with Avena fatua (AVEFA) [2], 0%; in test [3], 90%; in test [4] it was 90%; with Lolium perenne (LOLPE) [5], 20%; in the test with Setaria faberi (SETFA) [6], 80%. For the same compound, the pest or weed control at 125 g/ha in test [7] is 90%; with Avena fatua (AVEFA) [8], 90%; in test [9], 100%; in [10], 100%; with Lolium perenne (LOLPE) [11] it was 40%; with Setaria faberi (SETFA) [12], 100%.

For `CC(=O)OC1=C(c2c(C)cc(-c3ccccc3)cc2C)C(=O)[C@@H]2[C@H]1[C@@]1(C)CC[C@]2(C)O1` [Compound P6], the pest or weed control at 250 g/ha in test [1] was 80%; with Avena fatua (AVEFA) [2] it was 30%; in test [3], 100%; in test [4], 100%; in the test on Lolium perenne (LOLPE) [5], 70%; in the test with Setaria faberi (SETFA) [6] it was 100%. In addition, the pest or weed control at 125 g/ha in [7] stood at 70%; in the test with Avena fatua (AVEFA) [8], 50%; in test [9], 90%; in [10] it was 100%; with Lolium perenne (LOLPE) [11] it was 60%; in the test on Setaria faberi (SETFA) [12], 100%.

With `CCc1ccc(-c2ccc(Cl)s2)cc1C1=C(O)[C@H]2[C@@H](C1=O)[C@]1(C)CC[C@@]2(C)O1` [Compound T32], the pest or weed control at 250 g/ha in [1] is 30%; in the test on Avena fatua (AVEFA) [2] it was 0%; in test [3] it was 30%; in test [4], 70%; with Lolium perenne (LOLPE) [5], 60%; in the test with Setaria faberi (SETFA) [6], 100%. Besides, the pest or weed control at 125 g/ha in test [7] is 70%; in the test with Avena fatua (AVEFA) [8], 70%; in test [9], 70%; in [10], 100%; in the test on Lolium perenne (LOLPE) [11], 60%; in the test with Setaria faberi (SETFA) [12], 70%.

For `CCc1ccc(-c2ccc(Cl)c(Cl)c2)cc1C1=C(O)[C@H]2[C@@H](C1=O)[C@]1(C)CC[C@@]2(C)O1` [Compound T29], the pest or weed control at 250 g/ha is 10% in test [1]; 0% with Avena fatua (AVEFA) [2]; 40% in [3]; 0% in [4]; 30% in the test on Lolium perenne (LOLPE) [5]; 50% in the test with Setaria faberi (SETFA) [6]. The pest or weed control at 125 g/ha in [7] stood at 90%; in the test on Avena fatua (AVEFA) [8], 90%; in [9], 100%; in test [10] it was 100%; in the test with Lolium perenne (LOLPE) [11], 50%; in the test on Setaria faberi (SETFA) [12] it was 100%.

As for `CCc1ccc(-c2ccc(Cl)c(C(F)(F)F)c2)cc1C1=C(O)[C@H]2[C@@H](C1=O)[C@]1(C)CC[C@@]2(C)O1` [Compound T31], the pest or weed control at 250 g/ha in [1] is 0%; in the test with Avena fatua (AVEFA) [2], 50%; in test [3], 30%; in test [4], 60%; in the test with Lolium perenne (LOLPE) [5], 20%; in the test on Setaria faberi (SETFA) [6], 10%. In addition, the pest or weed control at 125 g/ha in [7] is 90%; in the test on Avena fatua (AVEFA) [8] it was 80%; in [9], 100%; in test [10] it was 100%; with Lolium perenne (LOLPE) [11] it was 40%; in the test on Setaria faberi (SETFA) [12], 100%.

`CCc1ccc(-c2ccc(Cl)c(F)c2)cc1C1=C(O)[C@H]2[C@@H](C1=O)[C@@H]1CC[C@H]2O1` [Compound T19]: the pest or weed control at 250 g/ha in test [1] was found to be 70%; with Avena fatua (AVEFA) [2], 70%; in test [3], 100%; in [4], 90%; with Lolium perenne (LOLPE) [5], 60%; in the test with Setaria faberi (SETFA) [6], 90%. The pest or weed control at 125 g/ha in [7] is 100%; with Avena fatua (AVEFA) [8], 100%; in [9], 100%; in [10] it was 100%; in the test on Lolium perenne (LOLPE) [11], 90%; in the test on Setaria faberi (SETFA) [12] it was 100%.
